Key:
[1] = tested on: diabetic patients; test: Cancer in patients during diabetes mellitus treatment (survey and case reports); format: in vivo, human; details: person
Source text: On the other hand, it is widely known that the insulin itself may increase the risk of the cancer and many cancer patients can be found in the patients of the diabetes mellitus.

[2] = confirmed by manufacturers; cited from earlier work
[3] = tested on: diabetic patients; test: HbA1c (glycated hemoglobin) of the patient under the prescription; format: in vivo, human; details: person; May 17, 2016, only the new drug (DPP4 inhibitor), before metformin+BCAA
Source text: (1) Step to measure HbA1c and lactate levels in patients
(3) Step to measure changes in HbA1c and lactate levels after administration of the composition to the patient,

[4] = tested on: diabetic patients; test: Blood glucose of the patient (casual, postprandial, glycemic control); format: in vivo, human
[5] = tested on: diabetic patients; test: Side effects and clinical course, opinion of the doctor; format: in vivo, human; details: person; 4 mg antihypertensive diuretic
Experimental: For each prescription example, the glycemic status of the patient that is dependent on the administered active components and the component amount is measured using HbA1c (glycated hemoglobin) along with changes in the lactic acid value, and opinion of the doctor is recorded together with the change in the values.

SMILES: N#C[C@@H]1CCCN1C(=O)CNC12CC3CC(CC(O)(C3)C1)C2 [Equa]
- Cancer developed during diabetes mellitus treatment ([1]; Case (10)): a bowel cancer was developed

SMILES: O=C(O)[C@H](CC(=O)N1C[C@H]2CCCC[C@H]2C1)Cc1ccccc1 [GLUFAST]
- Lactic acidosis [2]: do not cause lactic acidosis

SMILES: N[C@@H](CC(=O)N1CCn2c(nnc2C(F)(F)F)C1)Cc1cc(F)c(F)cc1F [JANUVIA, sitagliptin phosphate hydrate]
- Cancer developed during diabetes mellitus treatment ([1]; Case (13), treated from 2017, January 2019): A bone cancer was found

SMILES: Cc1cc(N2CCN([C@@H]3CN[C@H](C(=O)N4CCSC4)C3)CC2)n(-c2ccccc2)n1 [TENELIA]
- Cancer developed during diabetes mellitus treatment ([1]; Case (15), dialysis, used until October 2017, April 2019): A lung cancer was developed

SMILES: CC#CCn1c(N2CCC[C@@H](N)C2)nc2c1c(=O)n(Cc1nc(C)c3ccccc3n1)c(=O)n2C [Trazenta]
- Cancer developed during diabetes mellitus treatment ([1]; Case (9), used until October 2018): A vesical cancer was developed
- Cancer developed during diabetes mellitus treatment ([1]; Case (11), 5 mg, March 2019): A liver cancer was developed

SMILES: Cn1c(=O)cc(N2CCC[C@@H](N)C2)n(Cc2cc(F)ccc2C#N)c1=O [Zafatek]
- HbA1c [3]: 5.6%
- postprandial blood glucose ([4]; person, May 9, 2016, before metformin+BCAA was started): 246 mg/dL

SMILES: NS(=O)(=O)c1cc2c(cc1Cl)NC(C(Cl)Cl)NS2(=O)=O (stereo not drawn) [fluitran]
- Effect on the condition of diabetes mellitus [5]: worsened the condition of diabetes mellitus

SMILES: CN(C)C(=N)NC(=N)N.Cl [metformin, metformin hydrochloride]
- Blood sugar level ([4]; Case (19), metformin 250 mg after HD, as of August 2020): stable
- Lung cancer by PET and MRI ([1]; Case (19), metformin 250 mg after HD from May 2019, after radiation therapy, April 2020): reduction of lung cancer was maintained and there was no metastasis

SMILES: CC(C)[C@H]1CC[C@H](C(=O)N[C@H](Cc2ccccc2)C(=O)O)CC1 [nateglinide]
- Lactic acidosis [2]: do not cause lactic acidosis

From US11701336B2, “Method of determining composition effective for treating diabetes” (priority 2015, dated 2023)
